Assay results reported in ChEMBL document CHEMBL1201862, “PubChem BioAssay data set” (2004).
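These data come from cells grown in 96-well plates and exposed to compound for 48 hours at five concentrations. At the GI50, growth is halved.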 Active and inactive are the calls of the source. Cut-off read from the data, not from the text of the source: active = GI50 up to about 1.1 µM and inactive = higher.

Legend:
Assay in all cases: NCI-60 cell line screen, 48 h
[1] = system: 786-0
[2] = system: A498
[3] = system: A549
[4] = system: ACHN
[5] = system: BT-549
[6] = system: CAKI-1
[7] = system: CCRF-CEM
[8] = system: COLO 205
[9] = system: DU-145
[10] = system: EKVX
[11] = system: HCT-116
[12] = system: HCT-15
[13] = system: HL-60
[14] = system: HOP-62
[15] = system: HOP-92
[16] = system: HT-29
[17] = system: Hs-578T
[18] = system: IGROV-1
[19] = system: K562
[20] = system: KM12
[21] = system: LOX IMVI
[22] = system: M14
[23] = system: MCF7
[24] = system: MDA-MB-231
[25] = system: MDA-MB-435
[26] = system: MOLT-4
[27] = system: Malme-3M
[28] = system: NCI-H226
[29] = system: NCI-H23
[30] = system: NCI-H460
[31] = system: NCI-H522
[32] = system: NCI/ADR-RES
[33] = system: OVCAR-3
[34] = system: OVCAR-4
[35] = system: OVCAR-5
[36] = system: OVCAR-8
[37] = system: PC-3
[38] = system: RPMI-8226
[39] = system: RXF 393
[40] = system: SF-268
[41] = system: SF-295
[42] = system: SF-539
[43] = system: SK-MEL-28
[44] = system: SK-MEL-2
[45] = system: SK-MEL-5
[46] = system: SK-OV-3
[47] = system: SN12C
[48] = system: SNB-19
[49] = system: SNB-75
[50] = system: SR
[51] = system: SW-620
[52] = system: T47D
[53] = system: TK-10
[54] = system: U-251
[55] = system: UACC-257
[56] = system: UACC-62
[57] = system: UO-31

Nc1ccc(/N=N\c2ccc(-c3ccc(O)cc3)cc2)c2ccc(S(=O)(=O)O)cc12
GI50 [1]: > 100 µM (inactive) | GI50 [2]: > 100 µM (inactive) | GI50 [3]: > 100 µM (inactive) | GI50 [4]: > 100 µM (inactive) | GI50 [5]: > 100 µM (inactive) | GI50 [6]: > 100 µM (inactive) | GI50 [7]: > 100 µM (inactive) | GI50 [8]: > 100 µM (inactive) | GI50 [9]: > 100 µM (inactive) | GI50 [10]: > 100 µM (inactive) | GI50 [11]: > 100 µM (inactive) | GI50 [12]: > 100 µM | GI50 [13]: > 100 µM (inactive) | GI50 [14]: > 100 µM (inactive) | GI50 [15]: > 100 µM (inactive) | GI50 [16]: > 100 µM (inactive) | GI50 [17]: > 100 µM (inactive) | GI50 [18]: > 100 µM (inactive) | GI50 [19]: > 100 µM (inactive) | GI50 [20]: > 100 µM (inactive) | GI50 [21]: > 100 µM (inactive) | GI50 [22]: > 100 µM (inactive) | GI50 [23]: > 100 µM (inactive) | GI50 [24]: > 100 µM (inactive) | GI50 [25]: > 100 µM (inactive) | GI50 [26]: > 100 µM (inactive) | GI50 [27]: > 100 µM (inactive) | GI50 [28]: > 100 µM (inactive) | GI50 [29]: > 100 µM (inactive) | GI50 [30]: > 100 µM (inactive) | GI50 [31]: > 100 µM (inactive) | GI50 [32]: > 100 µM (inactive) | GI50 [33]: > 100 µM (inactive) | GI50 [34]: > 100 µM (inactive) | GI50 [35]: > 100 µM (inactive) | GI50 [36]: > 100 µM (inactive) | GI50 [37]: > 100 µM (inactive) | GI50 [38]: > 100 µM (inactive) | GI50 [39]: > 100 µM (inactive) | GI50 [40]: > 100 µM (inactive) | GI50 [41]: > 100 µM (inactive) | GI50 [42]: > 100 µM (inactive) | GI50 [43]: > 100 µM (inactive) | GI50 [44]: > 100 µM (inactive) | GI50 [45]: > 100 µM (inactive) | GI50 [46]: > 100 µM (inactive) | GI50 [47]: > 100 µM (inactive) | GI50 [48]: > 100 µM (inactive) | GI50 [49]: 77.1 µM (inactive) | GI50 [50]: > 100 µM (inactive) | GI50 [51]: > 100 µM (inactive) | GI50 [52]: > 100 µM (inactive) | GI50 [53]: > 100 µM (inactive) | GI50 [54]: > 100 µM (inactive) | GI50 [55]: > 100 µM (inactive) | GI50 [56]: > 100 µM (inactive) | GI50 [57]: > 100 µM (inactive)
